Consider twelve compounds from article PMC4097363, “Trace amines inhibit insect odorant receptor function through antagonism of the co-receptor subunit” (F1000Research, 2014).

Molecules are shown by their SMILES. Read-outs that look alike come from different tables or passages of the source.

The target of experiment [1] is T1, Cqui\Orco (Culex quinquefasciatus, UniProt Q309I4). As to the kind of experiment: Antagonism of OLC12 activation of Orco in Xenopus oocytes. The experiment is classed as cell-based. Particulars: for inhibition at 100 µM: read-out: inhibition of the OLC12 response. As for the experimental part:
(§1) Follicle cells were removed by treatment with collagenase B (Boehringer Mannheim) for 2 hours at room temperature. Capped cRNA encoding each OR subunit was generated using mMessage mMachine kits (Ambion). For heteromeric ORs, 25 ng of cRNA encoding each OR subunit was injected into Stage V-VI Xenopus oocytes. For expression of Orco homomers, 50 ng of cRNA was injected. Oocytes were incubated at 18°C in Barth's saline (in mM: 88 NaCl, 1 KCl, 2.4 NaHCO 3, 0.3 CaNO 3, 0.41 CaCl 2, 0.82 MgSO 4, 15 HEPES, pH 7.6, and 150µg/ml ceftazidime) for 2–5 days prior to electrophysiological recording.
(§2) Odorant and Orco ligand induced currents were recorded under two-electrode voltage clamp, using an automated parallel electrophysiology system (OpusExpress 6000A, Molecular Devices). Oocytes were perfused with ND96 (in mM: 96 NaCl, 2 KCl, 1 CaCl 2, 1 MgCl 2, 5 HEPES, pH 7.5). Orco ligands were prepared as 50 or 100 mM stock solutions in DMSO and then diluted into ND96 on the day of the experiment. Odorants were prepared as 100 mM stock solutions in DMSO and then diluted into ND96. Unless otherwise noted, applications were for 60 sec at a flow rate of 1.0 ml/min, with extensive washing in ND96 at 4.6 ml/min between applications. Micropipettes were filled with 3 M KCl and had resistances of 0.2–2.0 MΩ. The holding potential was -70 mV. Current responses, filtered (4-pole, Bessel, low pass) at 20 Hz (-3 db) and sampled at 100 Hz, were captured and stored using OpusXpress 1.1 software (Molecular Devices).
(§3) To screen for agonist activity, oocytes were exposed to 30 sec applications of candidate compounds with 5 min washes between applications ( Figure 2A). For the concentration-response protocol ( Table 1), applications were for 20 sec at a flow rate of 1.65 ml/min. To measure antagonist activity at Orco ( Figure 2B, 2C, Figure 3, Figure 4A and Figure 5A), oocytes were exposed to two 60 sec applications of the synthetic Orco agonist OLC12 (2-((4-Ethyl-5-(4-pyridinyl)-4H-1,2,4-triazol-3-yl)sulfanyl)-N-(4-isopropylphenyl)acetamide) with 4 min washes between applications. Oocytes were then exposed to a 90 sec application of antagonist candidate, immediately followed by a 60 sec co-application of antagonist candidate and OLC12. The current response in the presence of antagonist candidate was compared to the mean of the preceding two responses to OLC12 alone and is presented as a percentage.
(§4) Initial analysis of electrophysiological data was done using Clampfit 9.1 software (Molecular Devices). Curve fitting and statistical analyses were done using Prism 5 (Graphpad). Concentration-inhibition data were fit to the equation: I = I max/(1+ (X/IC 50) ^n) where I represents the current response at a given concentration of inhibitor, X; I max is the maximal response in the absence of inhibitor; IC 50 is the concentration of inhibitor present that still allows a half maximal response from odorant; n is the apparent Hill coefficient. Concentration-response data were fit to the equation: I = I max/(1+(EC 50/X) ^n) where I represents the current response at a given concentration of odorant, X; I max is the maximal response; EC 50 is the concentration of agonist yielding a half maximal response; n is the apparent Hill coefficient. Statistical significance (p<0.05) was assessed using a two-tailed unpaired t test, an F test, or a one-way analysis of variance followed by the Dunnett's post-test, as appropriate.

In experiment [2] the test system is Agam\Orco + Agam\Or65. Briefly: Odorant and Orco agonist concentration-response, two-electrode voltage clamp in Xenopus oocytes. The experiment is classed as cell-based. Here is the method:
as §1, §2, §3, §4

The target of experiment [3] is T1, Cqui\Orco. As to the kind of experiment: Agonist concentration-response, two-electrode voltage clamp in Xenopus oocytes. The experiment is classed as cell-based. Here is the method:
as §1, §2, §3, §4

In a further experiment the target is Onub\Orco + Onub\Or6 (Ostrinia nubilalis, UniProt D3J5H5). The description is as above. The experiment is classed as cell-based. Here is the method:
as §1, §2, §3, §4

In another experiment the target is T2, Dmel\Orco + Dmel\Or35a (Drosophila melanogaster, UniProt Q9VNB5).
T2 sequence (Q9VNB5 1-486): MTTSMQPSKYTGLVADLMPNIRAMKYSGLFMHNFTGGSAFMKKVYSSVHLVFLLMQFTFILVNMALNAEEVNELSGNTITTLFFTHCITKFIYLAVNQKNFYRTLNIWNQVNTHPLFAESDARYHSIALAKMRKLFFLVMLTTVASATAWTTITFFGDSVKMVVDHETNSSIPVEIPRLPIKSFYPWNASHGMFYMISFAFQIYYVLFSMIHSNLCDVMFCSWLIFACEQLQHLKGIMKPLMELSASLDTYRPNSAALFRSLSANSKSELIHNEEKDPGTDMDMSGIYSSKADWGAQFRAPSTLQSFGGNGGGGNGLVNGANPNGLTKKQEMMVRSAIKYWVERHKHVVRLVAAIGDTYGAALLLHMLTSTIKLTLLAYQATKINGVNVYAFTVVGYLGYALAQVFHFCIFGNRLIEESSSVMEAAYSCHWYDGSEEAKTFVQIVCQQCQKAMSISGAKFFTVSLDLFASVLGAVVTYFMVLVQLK
T2 sequence (Q9V3Q2 1-409 partner): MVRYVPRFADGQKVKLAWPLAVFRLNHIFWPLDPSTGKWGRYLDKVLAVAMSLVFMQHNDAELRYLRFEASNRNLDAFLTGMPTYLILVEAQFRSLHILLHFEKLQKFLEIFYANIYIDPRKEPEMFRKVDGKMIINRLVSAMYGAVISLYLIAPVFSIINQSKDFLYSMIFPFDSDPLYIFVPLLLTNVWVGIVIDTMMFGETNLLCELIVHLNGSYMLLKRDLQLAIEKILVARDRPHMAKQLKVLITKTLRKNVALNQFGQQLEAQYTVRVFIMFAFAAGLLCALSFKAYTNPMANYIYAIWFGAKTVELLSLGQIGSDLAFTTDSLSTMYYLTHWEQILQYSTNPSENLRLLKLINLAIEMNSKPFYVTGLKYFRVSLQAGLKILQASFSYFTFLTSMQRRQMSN
The experiment is described as above. The experiment is classed as cell-based. As for the experimental part:
as §1, §2, §3, §4

In another experiment the target is T3, Dmel\Orco (Drosophila melanogaster, UniProt Q9VNB5).
T3 sequence (Q9VNB5 1-486): T2 sequence (Q9VNB5 1-486)
Described as above. The experiment is classed as cell-based. As for the experimental part:
as §1, §2, §3, §4

In the next experiment the target is T4, Agam\Orco (Anopheles gambiae, UniProt Q7QCC7).
T4 sequence (Q7QCC7 1-478): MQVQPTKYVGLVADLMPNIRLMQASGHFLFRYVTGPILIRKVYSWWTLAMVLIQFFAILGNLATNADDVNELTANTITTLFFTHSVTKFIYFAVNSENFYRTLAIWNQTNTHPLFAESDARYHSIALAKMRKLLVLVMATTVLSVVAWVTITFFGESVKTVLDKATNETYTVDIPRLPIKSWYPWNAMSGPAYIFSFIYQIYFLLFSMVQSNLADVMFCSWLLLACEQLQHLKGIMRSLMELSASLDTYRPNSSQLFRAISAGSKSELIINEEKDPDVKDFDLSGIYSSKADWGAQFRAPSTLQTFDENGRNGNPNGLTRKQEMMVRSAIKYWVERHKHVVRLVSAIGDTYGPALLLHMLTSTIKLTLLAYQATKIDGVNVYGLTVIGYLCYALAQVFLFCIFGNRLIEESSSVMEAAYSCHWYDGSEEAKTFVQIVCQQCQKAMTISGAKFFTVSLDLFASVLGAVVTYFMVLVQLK
Described as above. The experiment is classed as cell-based. As for the experimental part:
as §1, §2, §3, §4

The target of experiment [4] is T5, Agam\Orco + Agam\Or65 (Anopheles gambiae, UniProt Q7QCC7).
T5 sequence (Q7QCC7 1-478): T4 sequence (Q7QCC7 1-478)
As to the kind of experiment: Odorant and Orco agonist concentration-response, two-electrode voltage clamp in Xenopus oocytes. The experiment is classed as cell-based. As for the experimental part:
as §1, §2, §3, §4

Another experiment relates to Agam\Orco + Agam\Or31. Briefly: Odorant concentration-response, two-electrode voltage clamp in Xenopus oocytes. The experiment is classed as cell-based, Anopheles gambiae. As for the experimental part:
as §1, §2
To screen for agonist activity, oocytes were exposed to 30 sec applications of candidate compounds with 5 min washes between applications ( Figure 2A). For the concentration-response protocol ( Table 1), applications were for 20 sec at a flow rate of 1.65 ml/min. […]
Initial analysis of electrophysiological data was done using Clampfit 9.1 software (Molecular Devices). […] Statistical significance (p<0.05) was assessed using a two-tailed unpaired t test, an F test, or a one-way analysis of variance followed by the Dunnett's post-test, as appropriate.

Setting [5] is: Cqui\Orco activated by 30µM OLC12 (~EC5), 100µM of each amine, mean ± SEM, n = 3-10.
Where [6] appears, read: normalizing conc. 30µM geranyl acetate.

T1 sequence (Q309I4 entry or part of it): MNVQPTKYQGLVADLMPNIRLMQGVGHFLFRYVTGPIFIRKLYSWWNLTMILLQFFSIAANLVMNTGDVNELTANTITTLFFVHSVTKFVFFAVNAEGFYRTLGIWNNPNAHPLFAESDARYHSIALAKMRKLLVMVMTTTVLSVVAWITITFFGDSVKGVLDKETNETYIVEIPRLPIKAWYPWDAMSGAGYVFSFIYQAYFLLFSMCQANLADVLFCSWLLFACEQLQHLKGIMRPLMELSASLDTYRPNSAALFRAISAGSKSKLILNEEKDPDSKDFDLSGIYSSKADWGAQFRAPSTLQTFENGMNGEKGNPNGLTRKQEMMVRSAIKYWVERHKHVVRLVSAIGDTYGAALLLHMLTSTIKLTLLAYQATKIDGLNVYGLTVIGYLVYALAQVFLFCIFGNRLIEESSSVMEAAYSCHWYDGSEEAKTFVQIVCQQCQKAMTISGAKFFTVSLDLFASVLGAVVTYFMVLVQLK
Onub\Orco + Onub\Or6, sequence (D3J5H9 entry or part of it): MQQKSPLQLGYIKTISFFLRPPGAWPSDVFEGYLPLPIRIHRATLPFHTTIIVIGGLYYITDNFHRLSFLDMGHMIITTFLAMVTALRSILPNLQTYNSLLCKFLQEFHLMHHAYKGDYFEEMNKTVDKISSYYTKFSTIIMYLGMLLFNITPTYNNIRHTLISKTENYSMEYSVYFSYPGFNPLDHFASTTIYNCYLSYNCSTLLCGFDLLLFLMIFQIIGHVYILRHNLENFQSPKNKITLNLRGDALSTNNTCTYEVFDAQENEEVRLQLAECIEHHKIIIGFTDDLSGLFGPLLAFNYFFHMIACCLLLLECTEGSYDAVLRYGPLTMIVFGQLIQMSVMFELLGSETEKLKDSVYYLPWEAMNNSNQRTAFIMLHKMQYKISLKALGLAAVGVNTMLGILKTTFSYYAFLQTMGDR
Onub\Orco + Onub\Or6, sequence (D3J5H5 entry or part of it): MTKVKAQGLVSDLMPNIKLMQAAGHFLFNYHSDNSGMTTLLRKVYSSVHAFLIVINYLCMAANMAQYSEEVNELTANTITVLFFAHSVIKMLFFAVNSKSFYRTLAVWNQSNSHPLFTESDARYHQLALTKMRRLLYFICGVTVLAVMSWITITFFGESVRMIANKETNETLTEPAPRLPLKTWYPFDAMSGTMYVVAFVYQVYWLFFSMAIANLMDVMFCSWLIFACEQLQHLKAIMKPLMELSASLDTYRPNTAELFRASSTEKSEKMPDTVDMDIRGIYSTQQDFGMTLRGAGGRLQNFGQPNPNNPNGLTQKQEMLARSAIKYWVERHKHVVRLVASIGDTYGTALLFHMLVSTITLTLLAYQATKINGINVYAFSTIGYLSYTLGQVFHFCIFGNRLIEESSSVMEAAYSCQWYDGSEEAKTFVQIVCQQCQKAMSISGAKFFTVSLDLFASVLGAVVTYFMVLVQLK

For the compound `CNC[C@H](O)c1ccc(O)c(O)c1` [epinephrine], the inhibition at 100 µM on Cqui\Orco [1] was determined as 9 ± 3%.

Turning to `CN(C)Cc1c[nH]c2ccccc12` [gramine], the inhibition at 100 µM on Cqui\Orco [1] (setting [5]) stood at 30 ± 4%.

`NCC(O)c1ccc(O)cc1` (centres unmarked) [Octopamine, octopamine]: the “inhibition of the OLC12 response” value at Cqui\Orco [1] (setting [5]) is “inactive”.

With `C=CCc1ccc(O)c(OC)c1` [Eugenol, eugenol], the “Fit Max” value in the experiment on Agam\Orco + Agam\Or65 [2] (normalized to 1µM eugenol) is given as 1.0 ± 0.03. Besides, in the experiment with Agam\Orco + Agam\Or65 [2] (normalizing conc. 1µM eugenol), the EC50 was 0.08 ± 0.01 µM and the “n H (apparent Hill coefficient)” value is 0.9 ± 0.1.

The compound `NCCc1ccccc1` [phenethylamine] had an IC50 against Cqui\Orco [1] of 117 ± 12 µM. Besides, the “less potent than tryptamine (IC50 ratio)” value at Cqui\Orco [1] (Cqui\Orco activated by 30µM OLC12) is listed as 25 fold. Also, the inhibition at 100 µM at Cqui\Orco [1] (setting [5]) came out at 41 ± 1%.

Turning to `NC[C@H](O)c1ccc(O)c(O)c1` [norepinephrine], the “inhibition of the OLC12 response” value against Cqui\Orco [1] (setting [5]) was “inactive”.

As to `COc1ccc2[nH]cc(CCNC(C)=O)c2c1` [melatonin], the inhibition at 100 µM at Cqui\Orco [1] (setting [5]) was 13 ± 1%.

For `CCn1c(SCC(=O)Nc2ccc(C(C)C)cc2)nnc1-c1ccncc1` [OLC12, 2-((4-Ethyl-5-(4-pyridinyl)-4H-1,2,4-triazol-3-yl)sulfanyl)-N-(4-isopropylphenyl)acetamide], the “Fit Max” value at Cqui\Orco [3] (normalized to 30µM OLC12) was determined as 48 ± 2; on Onub\Orco + Onub\Or6 (Onub\Orco + Onub\Or6, normalized to 100µM OLC12) it was 2.0 ± 0.1; at Dmel\Orco + Dmel\Or35a (normalized to 10µM OLC12), 4.7 ± 0.4; on Dmel\Orco (normalized to 10µM OLC12), 36 ± 4; at Agam\Orco (normalized to 30µM OLC12), 47 ± 2; at Agam\Orco + Agam\Or65 [4] (normalized to 30µM OLC12), 5.7 ± 0.3. Besides, the EC50 on Cqui\Orco [3] (normalizing conc. 30µM OLC12) was found to be 95 ± 6 µM; at Onub\Orco + Onub\Or6, 100 ± 4 µM; on Dmel\Orco + Dmel\Or35a (normalizing conc. 10µM OLC12), 20 ± 5 µM; on Dmel\Orco (normalizing conc. 10µM OLC12) it was 36 ± 4 µM; at Agam\Orco (normalizing conc. 30µM OLC12, mean ± SEM), 124 ± 9 µM; at Agam\Orco + Agam\Or65 [4] (normalizing conc. 30µM OLC12) it was 67 ± 6 µM. In addition, the “n H (apparent Hill coefficient)” value at Cqui\Orco [3] (normalizing conc. 30µM OLC12) was 2.5 ± 0.3; on Onub\Orco + Onub\Or6 (Onub\Orco + Onub\Or6, normalizing conc. 100µM OLC12) it was 2.1 ± 0.2; on Dmel\Orco + Dmel\Or35a (normalizing conc. 10µM OLC12), 1.9 ± 0.8; on Dmel\Orco (normalizing conc. 10µM OLC12) it was 3.9 ± 1.9; on Agam\Orco (normalizing conc. 30µM OLC12), 2.4 ± 0.3; at Agam\Orco + Agam\Or65 [4] (normalizing conc. 30µM OLC12), 2.0 ± 0.3.

Turning to `NCCc1c[nH]cn1` [Histamine, histamine], on Cqui\Orco [1], the inhibition at 100 µM was determined as 16 ± 8%.

On to `CC(=O)OC/C=C(\C)CCC=C(C)C` [Geranyl Acetate, geranyl acetate], for which the “Fit Max” value in the experiment with Agam\Orco + Agam\Or31 (normalized to 30µM geranyl acetate) came to 2.9 ± 0.3. For the same compound, in the experiment with Agam\Orco + Agam\Or31 (setting [6]), the EC50 was found to be 65 ± 23 µM and the “n H (apparent Hill coefficient)” value is reported as 1.0 ± 0.3.

As to `NCCc1c[nH]c2ccc(O)cc12` [serotonin], the inhibition at 100 µM at Cqui\Orco [1] (setting [5]) came out at 23 ± 3%.

As for `NCCc1ccc(O)c(O)c1` [dopamine], the “inhibition of the OLC12 response” value at Cqui\Orco [1] was “inactive”.
